Consider 142 compounds from the OPERA property sets (Mansouri et al. 2018).

Peptide text beside a SMILES is read from it.

As to `Brc1ccccn1`, the logP (as a rule, a log measure of how a compound divides between an organic and an aqueous phase) is 1.42.
Regarding `Cc1ncc([N+](=O)[O-])n1CCS(C)(=O)=O`, the logP was -0.82.
In turn, `OCC(Br)(Br)Br` returned a log partition coefficient (logP) of 2.1.
Compound `COc1ccc(C(=O)O)cc1OC` returned a log partition coefficient (logP) of 1.61.
For the compound `CNC(=O)COc1ccccc1`, the log partition coefficient (logP) was 1.02.
On to `O=C(O)c1cc([N+](=O)[O-])c(Cl)c([N+](=O)[O-])c1`, for which the lipophilicity (logP) was determined as 2.5.
Compound `Cc1ccc(NC2=NCCN2)c(Cl)c1` registered a logP of 1.8.
Then `Nc1nncs1`, with -0.57; and `COc1cccc(O)c1`, with 1.34.
For the compound `COP(=S)(OC)SCn1nnc2ccccc2c1=O`, the logP came to 2.75.
The value for `O=C(O)c1ccc(F)cc1` was 2.07; that for `COc1cnnc2ccccc12` was 1.41; that for `CC(=O)Nc1ccc(F)cc1` was 1.47.
`CCN(CC)CC` gave a logP of 1.45.
In the case of `CCC(N)Cc1ccccc1` (configuration not stated), the logP came to 2.28.
The value for `O=C(O)CCCCCC(=O)O` was 0.61; that for `CCNc1nc(NC(C)C(C)C)nc(SC)n1` (configuration not stated) was 3.9.
For `Cc1cc(C(=O)NN)ccn1`, the logP was -0.37.
Regarding `Clc1cc(Cl)cc(Cl)c1`, the logP was 4.19.
Then `Cc1ccc(O)c(O)c1`, with 1.37; and `COC(COC(N)=O)C1=C(N2CC2)C(=O)C(C)=C(N2CC2)C1=O` (configuration not stated), with -0.15; and `NNP(=O)(Oc1ccccc1)Oc1ccccc1`, with 1.51.
`CCCCCCCN(C)/N=N/c1ccc(C(N)=O)cc1`: the logP was 4.2.
The value for `CCCCCCCCOC(=O)n1cnc(CC(NC(=O)C2CCC(=O)N2)C(=O)N2CCCC2C(N)=O)c1` (configuration not stated) was 1.82; that for `NCCCc1cccnc1` was 0.44.
`CCNc1nc(Cl)nc(NC(C)(C)C#N)n1` gave a logP of 2.22.
Compound `Cc1cc(C)ncn1` returned a log partition coefficient (logP) of 0.62.
The compound `CCCCCCCOc1cccc(NC(=O)OCCN2CCCCC2)c1` yielded a logP of 5.53.
Take `O=C(Oc1ccc(N=C=S)cc1)c1ccccc1`: the logP came out at 4.9.
Compound `O=C1CC(=O)N(c2ccccc2)N1c1ccccc1` showed a logP of 1.45.
Then `CC(=O)N[C@H](C(=O)N[C@@H](C)C(=O)N[C@H](C(N)=O)C(C)C)C(C)C` (Ac-Val-Ala-Val-NH2), with -0.67.
As for `Fc1ccccc1CCl`, the lipophilicity (logP) came out at 2.67.
Take `c1ccc(Cc2ccncc2)cc1`: the logP came to 2.62.
Turning to `NC(=O)Nc1ccc(F)cc1`, the lipophilicity (logP) turned out to be 1.04.
For the compound `O=C(NC(CO)C(O)c1ccc([N+](=O)[O-])cc1)C(Br)(Br)Br` (configuration not stated), the logP is 2.17.
In turn, `CNC` yielded a lipophilicity (logP) of -0.38.
Regarding `COP(=S)(OC)SCN1C(=O)c2ccccc2C1=O`, the logP was found to be 2.78.
In the case of `CCOC(=O)C(=Cc1ccccc1OC)C(C)=O`, the log partition coefficient (logP) was determined as 2.39.
With `CCCC(N)Cc1ccccc1` (configuration not stated), the logP amounted to 2.79.
`c1ccc(COc2cccc3cccnc23)cc1` yielded a logP of 3.51.
As for `CC(C)CN(N=O)C(N)=O`, the log partition coefficient (logP) is 1.04.
As for `Fc1cccc(F)n1`, the lipophilicity (logP) turned out to be 1.17.
`CCc1ccccc1-c1nc(N)nc(N)n1` showed a logP of 1.65.
The value for `CCCCC(=O)Nc1ccccc1` was 2.61.
In turn, `Nc1ccc(C(=O)Oc2ccc(F)cc2)c(O)c1` yielded a logP of 3.27.
In turn, `COC(=O)CNC(=O)c1ccccc1` yielded a logP of 0.82.
The compound `CC(=O)c1ccncc1` gave a logP of 0.48.
Then `C=CC(=O)OCC`, with 1.32.
For the compound `CCOC=O`, the logP was 0.23.
`Nc1nc(N)nc(-c2ccc([N+](=O)[O-])cc2)n1` yielded a lipophilicity (logP) of 1.6.
Take `Oc1ccccc1F`: the lipophilicity (logP) was 1.71.
In turn, `CC(=O)c1ccccc1N` yielded a logP of 1.63.
The value for `CCN(CC)C(=S)SSC(=S)N(CC)CC` was 3.88.
Regarding `CCOC(=O)C(=Cc1ccc(O)c(OC)c1)C(=O)OCC`, the log partition coefficient (logP) turned out to be 2.89.
Then `Nc1ncnc2nc(-c3ccccc3)[nH]c12`, with 2.31.
In turn, `CCCCNC(=O)Cn1cnc([N+](=O)[O-])n1` displayed a logP of 0.89.
Then `Nc1nc(N)nc(-c2ccccc2I)n1`, with 1.41; and `O=[N+]([O-])c1cccc(-c2ccccc2)c1`, with 3.87; and `CCNC(C)C`, with 0.93.
The value for `CCCCCOc1ccc(O)cc1` was 3.5; that for `O=C1CN(N=Cc2ccc([N+](=O)[O-])o2)C(=O)N1` was -0.47.
For `C=CCc1ccccc1`, the logP is 3.23.
Then `CNC(=O)Oc1ccc(C=O)cc1`, with 0.99; and `CCC1COC(Cn2cncn2)(c2ccc(-c3ccccc3)cc2)O1` (configuration not stated), with 3.71; and `CCOC(=O)c1ccncc1`, with 1.43.
`CCCC(=O)OC`: the log partition coefficient (logP) stood at 1.29.
Then `CC(=O)c1cc2ccccc2nn1`, with 1.44; and `COC(=S)NCCn1c([N+](=O)[O-])cnc1C`, with 1.15.
With `CCCOC(=O)c1ccc(S(N)(=O)=O)cc1`, the log partition coefficient (logP) is 1.75.
In turn, `Oc1ccc(Sc2ccc(O)cc2)cc1` had a log partition coefficient (logP) of 3.34.
Then `COC(=O)c1cccnc1`, with 0.83.
As for `COc1cc2c(c(OC)c1O)-c1ccc(OC)c(=O)cc1[C@@H](NC(C)=O)CC2`, the logP was 0.48.
In turn, `CC(C)(C)c1ccc(N)cc1` registered a logP of 2.7.
In turn, `COC(=O)C12OCC34C(CC5C(C)=C(O)C(=O)CC5(C)C3C(O)C1O)OC(=O)C(OC(=O)C=C(C)C(C)C)C24` (configuration not stated) displayed a logP of 1.66.
Turning to `N#Cc1ccc(C#N)cc1`, the logP was 0.93.
Then `c1ccc(COCc2ccccc2)cc1`, with 3.31.
`Nc1cccc(Cl)c1` registered a lipophilicity (logP) of 1.88.
Compound `CC(=O)NC(Cc1ccccc1)C(N)=O` (configuration not stated) showed a logP of -0.04.
Regarding `O=[N+]([O-])c1cccc2ccccc12`, the logP turned out to be 3.19.
As to `COc1cccc(S(C)(=O)=O)c1`, the logP was found to be 0.76.
In the case of `Fc1cccc(C2CNCCO2)c1` (configuration not stated), the logP was found to be 1.42.
Then `CCC(C)(C)Cl`, with 2.52.
Take `CCCCCC(=O)O`: the logP was 1.92.
`NC(=O)c1cccc(Br)c1` displayed a lipophilicity (logP) of 1.65.
With `O=[N+]([O-])c1ccc(Cl)cc1`, the logP is 2.39.
Consider `CNCC(=O)O`, for which the logP was -2.78.
`CCc1ccccc1OC(=O)NC` came in with a log partition coefficient (logP) of 1.93.
In turn, `O=[N+]([O-])C=Cc1cccs1` yielded a logP of 1.96.
`COC(=O)c1ccco1`: the logP stood at 1.
As to `CCCCNc1ccccc1`, the logP is 3.58.
The value for `OC(c1ccc(Cl)cc1)(c1ccc(Cl)cc1)C1CC1` was 5.5; that for `COC(=O)c1ccccc1Cl` was 2.38; that for `CS(C)(=O)=O` was -1.41.
On to `CNC(=O)c1ccoc1`, for which the logP was found to be 0.34.
The value for `O=C1C=CC(=O)c2ccccc21` was 1.71; that for `Oc1ccc(C(F)(F)F)cc1` was 2.82.
Compound `OC(c1ccccc1)C(O)c1ccccc1` (configuration not stated) showed a lipophilicity (logP) of 1.91.
`C=CCC1(C2C=CCC2)C(=O)NC(=O)NC1=O` (configuration not stated) registered a logP of 1.51.
As for `c1cnc2[nH]ccc2c1`, the logP came out at 1.82.
`Cc1cc(C(=O)NNCc2ccccc2)no1` displayed a logP of 1.49.
The compound `CCCOC(C)=O` yielded a log partition coefficient (logP) of 1.24.
Compound `O=[N+]([O-])c1ccc(Nc2ccccc2)cc1` displayed a lipophilicity (logP) of 3.74.
Then `Cc1ccc2cccc(O)c2n1`, with 2.33; and `CC(C)c1ccc(NC(=O)N(C)C)cc1`, with 2.87.
For `CC(=O)Nc1c(C)cc(O)cc1C`, the log partition coefficient (logP) came out at 0.31.
As to `NC(=O)c1ccc(I)cc1`, the lipophilicity (logP) stood at 1.99.
Take `COc1cc2c(c(OC)c1OC)-c1ccc(=O)c(OC)cc1C(NC(C)=O)CC2` (configuration not stated): the logP came out at 1.
For `CON(C)C(=O)Nc1ccc(Cl)cc1`, the logP turned out to be 2.3.
Consider `O=C(NCc1ccc(O)cc1)c1ccccc1`, for which the logP was found to be 1.87.
Compound `CCCC[Si](C)(C)C` returned a log partition coefficient (logP) of 4.2.
With `Clc1ccc(Cl)nc1`, the logP was determined as 2.4.
The compound `O=C(NC(CO)C(O)c1ccc(-c2ccccc2)cc1)C(Cl)Cl` (configuration not stated) yielded a logP of 2.86.
As for `COc1cc([N+](=O)[O-])c(OC)cc1CC(C)N` (configuration not stated), the logP stood at 1.74.
In turn, `N=C(N)NCCCCc1ccccc1` displayed a logP of 1.59.
On to `C=CC(=O)c1ccccc1`, for which the log partition coefficient (logP) is 1.88.
`O=C(O)Cc1ccc([N+](=O)[O-])cc1` came in with a log partition coefficient (logP) of 1.39.
Then `C=CCC1(C(C)C)C(=O)NC(=O)NC1=O`, with 1.15; and `CCc1cccs1`, with 2.87.
`Nc1ccc(Cl)c(Cl)c1` displayed a lipophilicity (logP) of 2.69.
Then `CC(=O)c1ccc(NC=O)cc1`, with 0.94.
Take `Cc1ccc(C)n1N(C)c1ccc(N2CCOCC2)nn1`: the log partition coefficient (logP) stood at 2.21.
Turning to `CN(C)C(CSS(=O)(=O)c1ccccc1)CSS(=O)(=O)c1ccccc1`, the logP stood at 3.36.
Compound `CCOC(=O)CON=Cc1ccc(OCC(=O)OCC)c(OC)c1` registered a logP of 1.87.
Compound `CCCc1ccc([N+](=O)[O-])cc1` gave a log partition coefficient (logP) of 3.45.
Compound `CNC(C)Cc1ccccc1` (configuration not stated) yielded a lipophilicity (logP) of 2.07.
In turn, `OCCCCCl` returned a logP of 0.85.
Regarding `CNC(=O)Oc1cc(C)c(C)cc1C`, the logP turned out to be 2.52.
Consider `CC(C)COC(=O)c1cc(O)c(O)c(O)c1`, for which the logP worked out at 2.46.
Then `O=C(OCc1ccccc1)n1c(=O)[nH]cc(F)c1=O`, with 1.42; and `c1ccc2c(c1)oc1ccccc12`, with 4.12; and `NCCCCc1ccccn1`, with 0.86.
The value for `CCI` was 2.
Regarding `CNCC(CC(C)C)c1ccccc1` (configuration not stated), the logP worked out at 3.76.
Compound `CCc1ccccc1C` displayed a logP of 3.53.
`CCOCC(O)Cn1cnc([N+](=O)[O-])n1` (configuration not stated) gave a log partition coefficient (logP) of -0.07.
`CCc1cc(NC(C)=O)cc(CC)c1O`: the lipophilicity (logP) was determined as 1.87.
`CCOC(=O)NC(O)C(Cl)(Cl)Cl` (configuration not stated) registered a log partition coefficient (logP) of 1.84.
For the compound `O=C1C2(Cl)C3(Cl)C4(Cl)C(Cl)(Cl)C5(Cl)C3(Cl)C1(Cl)C5(Cl)C24Cl` (configuration not stated), the lipophilicity (logP) turned out to be 5.41.
In turn, `Clc1ccc(Cl)c(-c2ccc(Cl)c(Cl)c2)c1` displayed a lipophilicity (logP) of 6.23.
The value for `CCN(C)C` was 0.7; that for `CN(C)c1ccnnc1` was -0.09.
`NC(=O)CI` showed a logP of -0.19.
